From paper PMC9404989, “Design and Evaluation of Short Bovine Lactoferrin-Derived Antimicrobial Peptides against Multidrug-Resistant Enterococcus faecium” (Antibiotics, 2022)
No end group written: not given here.

Legend:
[1] = tested on: E. faecium strain C68 persister and exponential cells; assay: SYTOX Green membrane permeability assay; format: cell-based, Enterococcus faecium; settings: for SYTOX membrane permeabilization of exponential cells: 16 µg/mL; for SYTOX membrane permeabilization of persister cells: peptides at 16 µg/mL, fluorescence, 1 h
Procedure: We generated E. faecium strain C68 persister cells (described in the above section) and diluted them in PBS to OD600 = 0.2. We added SYTOX Green (Molecular Probes, Life Technologies, Eugene, OR, USA) to the diluted persister suspension to a final concentration of 5 μM and incubated them for 30 min at room temperature in the dark. We added 90 µL of the dye/bacteria mixture to 10 μL of serially diluted 10× peptide concentration in a 96-well black, clear-bottom plate (Cat No. 3904, Corning, NY, USA) and recorded fluorescence on a SpectraMax i3x (Molecular Devices, San Jose, CA, USA) with excitation and emission wavelengths of 485 nm and 525 nm, respectively, for 1 h at room temperature. For comparison, we also conducted membrane permeability assays using exponential cells and followed similar protocol as described for persister cells.

[2] = tested on: human red blood cells (hRBCs); format: cell-based
Procedure: We evaluated the ability of the peptide to cause hemoglobin leakage using the method described in [15]. In brief, we washed human erythrocytes (Rockland Immunochemicals (Limerick, Pottstown, PA, USA)) 3× times in an equal volume of PBS and resuspended them as 2% hRBCs solution. We added 90 µL of the blood cells to 10 µL of the peptide solution (10×) in a 96-well microtiter plate (Cat No. 3595, Corning, New York, NY, USA) and incubated the plates at 37 °C for 1 h. Next, we centrifuged the plates at 500× g for 5 min, transferred 60 µL of the supernatant into a fresh 96-well plate, and read the absorbance at 540 nm. We calculated the percent hemolysis considering 100% hemolysis caused by 1% Triton X-100, and 0% on PBS and using the formula for percentage of hemolysis as: (A540 nm in the peptide solution − A540 nm in PBS)/(A540 nm of 1% Triton X-100-treated sample − A540 nm in PBS) × 100.

HepG2 cells = assay: Mammalian cell cytotoxicity assay (WST-1); format: cell-based, human; settings: 24 h, WST-1, triplicates
Procedure: We used liver-derived HepG2 cells to evaluate AMP cytotoxicity behavior in mammalian cells based on an established protocol. We maintained the HepG2 cells at 37 °C in 5% CO2 in Dulbecco’s Modified Eagle Medium (DMEM) (Gibco, Waltham, MA, USA) supplemented with 10% fetal bovine serum (FBS) (Gibco, Gaithersburg, MD, USA) and 1% penicillin/streptomycin (Gibco, Gaithersburg, MD, USA). Next, we harvested and resuspended the cells in a fresh medium and distributed 50 µL ([…]) in a 96-well plate containing 50 µL of serially diluted AMPs in serum and antibiotic-free DMEM and incubated the plates at 37 °C in 5% CO2 for 24 h. Before the end of the incubation period (at the 20th hour), we added 10 µL of 2-(4-iodophenyl)-3-(4-nitrophenyl)-5-(2,4-disulfophenyl)-2H-tetrazolium (WST-1) (Roche, Mannheim, Germany) to each well and monitored the reduction of WST-1 at 450 nm using a SpectraMax i3x (Molecular Devices, San Jose, CA, USA). We performed the assays in triplicates and calculated the percentage of cell survival.

[3] = tested on: E. faecium strain C68 persister cells; assay: Persister cell time-kill assay; format: cell-based, Enterococcus faecium
Procedure: For the generation of antibiotic-induced persister cells, we followed an established protocol. In brief, 25 mL of E. faecium strain C68 culture was grown to the stationary phase and then treated with gentamicin at 400 μg/mL for 5 h. We then disposed of the antibiotic-containing media and regrew the bacteria for another 18 h in fresh media. To produce stable persister cells, we repeated the cycle of antibiotic exposure and regrowth five times. The bacteria culture was then washed with the same volume of phosphate-buffered saline (PBS) 3× times and adjusted to 1 × 10^7 CFU/mL in PBS. For killing kinetics of the persister cells, we added 1 mL of the cell suspension to the wells of a 2 mL deep well assay block (Cat No. 3960, Corning, NY, USA) containing 10× MICs of 5L and 6L and incubated them at 37 °C, with shaking at 225 rpm. At specific times (0, 15, 30, 60, and 120 min), we collected 20 μL samples, diluted them serially, and then plated them on tryptic soy agar (TSA) (BD Difco, Franklin Lakes, NJ, USA) plates for 18 h at 37 °C for colony counting. We performed the experiments in duplicate. As a comparison, we prepared the exponential cells of E. faecium strain C68 in PBS and analyzed their killing kinetics in the same manner as described for persister cells.

E. faecium strain C68 = assay: ATP release assay (luciferase); format: cell-based, Enterococcus faecium; settings: 32 µg/mL, 37 °C, 30 min
Procedure: To determine the ATP leakage potential of the peptides, we employed a luciferase-based assay detailed in [32]. In brief, we washed the exponential phase of E. faecium strain C68 bacteria three times with PBS (pH 7.4) and adjusted it to OD600 = 0.4 in PBS. Following treatment of the bacteria with 32 µg/mL of 5L and 6L peptides at 37 °C for 30 min, we centrifuged the cells at 14,000 rpm for 5 min. We transferred 50 µL of the supernatant of each sample to each well of black, clear-bottom, 96-well plates (Cat No. 3904, Corning, New York, NY, USA) containing 50 µL of BacTiter-Glo reagent (Promega, Madison, WI, USA) and measured plate luminescence after 5 min of incubation at room temperature in the dark with a SpectraMax i3x reader (Molecular Devices, San Jose, CA, USA).

S. aureus MW2 = assay: microbe, parasite or virus in culture; format: cell-based, Staphylococcus aureus; settings: MW2, 18 h
Procedure: To determine the MICs of peptides, we used the broth microdilution method described by the Clinical and Laboratory Standards Institute. We made serial dilutions of 10× concentration (10 µL) for each peptide in duplicates in 96-well plates (Cat No. 3595, Corning, New York, NY, USA). We added 90 µL of logarithmic-phase bacteria at 5 × 10^5 CFU/mL (in BHI media) to the peptides and then incubated the plates at 37 °C for 18 h. We measured the OD600 absorbance readings using the Spectra Max i3x spectrophotometer (Molecular Devices, San Jose, CA, USA) and determined the MIC as the peptide concentration that inhibits the growth of bacteria.

| Substance | SYTOX membrane permeabilization of exponential cells [1] | SYTOX membrane permeabilization of persister cells [1] | HL50 [2] [µg/mL] | concentration without cell death in HepG2 cells (HepG2 cells) [µg/mL] | reduction of viable persister cells ([3]; 10× MIC (40 µg/mL), 1 × 10^7 CFU, PBS, within 120 min) [logs] | ATP leakage (luminescence) (E. faecium strain C68) | MIC S. aureus MW2 (S. aureus MW2) [µg/mL] | time to eliminate all persister cells ([3]; 40 µg/mL, 1 × 10^7 persister cells) [min] |
| --- | --- | --- | --- | --- | --- | --- | --- | --- |
| RRWLWLRRWLWR-NH2 [Peptide 5L] | enhanced membrane permeabilization | time-dependent fluorescent increment | 56 | ≥ 128 | 3 | increased luminescence levels | > 32 |  |
| RRWLWRLRWLWR-NH2 [Peptide 6L] | enhanced membrane permeabilization | time-dependent fluorescent increment | 34 | ≥ 128 |  | increased luminescence levels | 32 | ≤ 60 |
